{"source": "paper doi:10.1101/2020.06.11.145995v1", "about": "(biorxiv, 2020)", "experiment_in_all_cases": "biochemical", "key": {"VEGFR2": {"biological_target": "VEGFR2 (Homo sapiens, UniProt P35968)", "sequence (P35968 whole entry)": "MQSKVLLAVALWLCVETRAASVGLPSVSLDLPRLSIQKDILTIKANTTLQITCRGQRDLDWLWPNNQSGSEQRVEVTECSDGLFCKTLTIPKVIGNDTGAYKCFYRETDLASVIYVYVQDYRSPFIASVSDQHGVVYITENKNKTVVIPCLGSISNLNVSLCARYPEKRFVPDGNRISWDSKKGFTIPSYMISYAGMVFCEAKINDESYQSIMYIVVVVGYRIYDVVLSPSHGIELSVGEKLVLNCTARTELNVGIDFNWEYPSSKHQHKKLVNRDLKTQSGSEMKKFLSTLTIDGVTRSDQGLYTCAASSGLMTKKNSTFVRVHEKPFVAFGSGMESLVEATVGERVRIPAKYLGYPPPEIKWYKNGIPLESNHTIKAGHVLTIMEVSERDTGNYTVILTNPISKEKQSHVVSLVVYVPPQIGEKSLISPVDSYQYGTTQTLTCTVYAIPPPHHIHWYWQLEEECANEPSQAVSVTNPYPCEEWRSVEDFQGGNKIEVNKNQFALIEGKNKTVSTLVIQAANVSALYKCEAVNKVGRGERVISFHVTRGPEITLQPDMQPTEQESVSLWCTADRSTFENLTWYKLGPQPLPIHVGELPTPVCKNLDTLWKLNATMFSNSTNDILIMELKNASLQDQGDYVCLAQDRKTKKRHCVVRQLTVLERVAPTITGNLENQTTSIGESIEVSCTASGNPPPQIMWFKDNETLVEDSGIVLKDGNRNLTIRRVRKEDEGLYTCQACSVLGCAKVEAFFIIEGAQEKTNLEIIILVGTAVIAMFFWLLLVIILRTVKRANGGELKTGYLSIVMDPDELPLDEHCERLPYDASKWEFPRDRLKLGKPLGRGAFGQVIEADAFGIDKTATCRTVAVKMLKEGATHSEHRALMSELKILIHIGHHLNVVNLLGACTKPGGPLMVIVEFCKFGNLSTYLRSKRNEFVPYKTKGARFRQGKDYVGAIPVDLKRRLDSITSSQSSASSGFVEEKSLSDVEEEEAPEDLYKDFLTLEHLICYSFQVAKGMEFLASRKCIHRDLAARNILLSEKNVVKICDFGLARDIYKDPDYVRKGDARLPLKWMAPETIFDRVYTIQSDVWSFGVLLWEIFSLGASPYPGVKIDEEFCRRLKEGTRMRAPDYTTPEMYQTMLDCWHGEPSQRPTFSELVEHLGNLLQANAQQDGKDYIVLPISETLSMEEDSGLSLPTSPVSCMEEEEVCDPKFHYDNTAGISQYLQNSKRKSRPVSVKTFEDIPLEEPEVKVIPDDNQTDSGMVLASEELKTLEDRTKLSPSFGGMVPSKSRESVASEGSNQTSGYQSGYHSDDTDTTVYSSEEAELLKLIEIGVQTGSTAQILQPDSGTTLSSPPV"}, "PAK1": {"biological_target": "PAK1 (Homo sapiens, UniProt Q13153)"}, "TXK": {"biological_target": "TXK (Homo sapiens, UniProt P42681)"}, "STK39": {"biological_target": "STK39 (Homo sapiens, UniProt Q9UEW8)"}, "NEK3": {"biological_target": "NEK3 (Homo sapiens, UniProt P51956)"}, "NEK2": {"biological_target": "NEK2 (Homo sapiens, UniProt P51955)"}, "NEK11": {"biological_target": "NEK11 (Homo sapiens, UniProt Q8NG66)"}, "TAOK3": {"biological_target": "TAOK3 (Homo sapiens, UniProt Q9H2K8)"}, "PRKR": {"biological_target": "PRKR (Homo sapiens, UniProt P19525)", "sequence (P19525 whole entry)": "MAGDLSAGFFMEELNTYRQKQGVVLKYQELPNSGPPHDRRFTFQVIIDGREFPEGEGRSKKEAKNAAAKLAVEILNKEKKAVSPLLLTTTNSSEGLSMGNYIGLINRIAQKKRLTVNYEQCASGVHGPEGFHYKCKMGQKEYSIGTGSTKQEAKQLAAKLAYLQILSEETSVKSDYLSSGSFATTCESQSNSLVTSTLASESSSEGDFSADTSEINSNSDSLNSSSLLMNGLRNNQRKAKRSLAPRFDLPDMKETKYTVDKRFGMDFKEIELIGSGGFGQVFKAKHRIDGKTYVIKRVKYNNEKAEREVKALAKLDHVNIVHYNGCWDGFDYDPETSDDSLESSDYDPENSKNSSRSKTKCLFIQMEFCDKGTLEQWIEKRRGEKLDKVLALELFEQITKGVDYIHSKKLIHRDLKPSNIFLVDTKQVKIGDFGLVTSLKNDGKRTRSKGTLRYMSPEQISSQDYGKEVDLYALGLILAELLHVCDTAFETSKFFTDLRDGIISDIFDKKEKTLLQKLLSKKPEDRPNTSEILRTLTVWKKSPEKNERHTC"}, "PFTAIRE2": {"biological_target": "PFTAIRE2 (Homo sapiens, UniProt Q96Q40)"}, "PCTK1": {"biological_target": "PCTK1 (Homo sapiens, UniProt Q00536)"}, "p38-beta": {"biological_target": "p38-beta (Homo sapiens, UniProt Q15759)"}, "PAK6": {"biological_target": "PAK6 (Homo sapiens, UniProt Q9NQU5)"}, "STK35": {"biological_target": "STK35 (Homo sapiens, UniProt Q8TDR2)"}, "AAK1": {"biological_target": "AAK1 (Homo sapiens, UniProt Q2M2I8)", "sequence (Q2M2I8 whole entry)": "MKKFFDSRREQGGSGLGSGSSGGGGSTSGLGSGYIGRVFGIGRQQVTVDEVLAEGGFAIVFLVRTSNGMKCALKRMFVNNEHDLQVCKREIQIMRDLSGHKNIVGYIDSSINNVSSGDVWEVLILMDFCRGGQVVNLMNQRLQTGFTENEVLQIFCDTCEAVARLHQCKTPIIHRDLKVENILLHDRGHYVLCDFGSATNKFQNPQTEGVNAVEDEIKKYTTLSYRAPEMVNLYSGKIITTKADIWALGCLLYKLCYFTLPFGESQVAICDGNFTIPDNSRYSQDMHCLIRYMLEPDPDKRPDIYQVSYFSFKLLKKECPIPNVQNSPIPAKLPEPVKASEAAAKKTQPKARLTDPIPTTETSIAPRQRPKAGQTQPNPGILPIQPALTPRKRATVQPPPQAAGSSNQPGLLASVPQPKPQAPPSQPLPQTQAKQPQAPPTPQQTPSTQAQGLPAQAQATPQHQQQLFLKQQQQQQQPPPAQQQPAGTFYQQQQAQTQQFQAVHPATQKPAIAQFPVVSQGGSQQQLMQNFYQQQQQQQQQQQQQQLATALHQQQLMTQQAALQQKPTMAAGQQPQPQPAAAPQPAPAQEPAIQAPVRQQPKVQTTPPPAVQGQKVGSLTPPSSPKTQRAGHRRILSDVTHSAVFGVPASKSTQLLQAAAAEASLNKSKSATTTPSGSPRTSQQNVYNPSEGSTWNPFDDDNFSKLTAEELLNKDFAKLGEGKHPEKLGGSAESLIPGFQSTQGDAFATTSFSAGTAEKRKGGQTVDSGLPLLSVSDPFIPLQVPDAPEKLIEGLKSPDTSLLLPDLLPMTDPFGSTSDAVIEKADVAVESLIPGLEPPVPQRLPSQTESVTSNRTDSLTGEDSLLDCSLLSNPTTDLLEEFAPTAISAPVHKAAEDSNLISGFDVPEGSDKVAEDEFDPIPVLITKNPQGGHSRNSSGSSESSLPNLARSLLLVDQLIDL"}, "TNNI3K": {"biological_target": "TNNI3K (Homo sapiens, UniProt Q59H18)"}, "TRPM6": {"biological_target": "TRPM6 (Homo sapiens, UniProt Q9BX84)"}, "SBK1": {"biological_target": "SBK1 (Homo sapiens, UniProt Q52WX2)"}, "YSK1": {"biological_target": "YSK1 (Homo sapiens, UniProt O00506)"}, "RET(V804M)": {"biological_target": "RET(V804M) (Homo sapiens, UniProt P07949, V804M)"}, "SNARK": {"biological_target": "SNARK (Homo sapiens, UniProt Q9H093)", "sequence (Q9H093 whole entry)": "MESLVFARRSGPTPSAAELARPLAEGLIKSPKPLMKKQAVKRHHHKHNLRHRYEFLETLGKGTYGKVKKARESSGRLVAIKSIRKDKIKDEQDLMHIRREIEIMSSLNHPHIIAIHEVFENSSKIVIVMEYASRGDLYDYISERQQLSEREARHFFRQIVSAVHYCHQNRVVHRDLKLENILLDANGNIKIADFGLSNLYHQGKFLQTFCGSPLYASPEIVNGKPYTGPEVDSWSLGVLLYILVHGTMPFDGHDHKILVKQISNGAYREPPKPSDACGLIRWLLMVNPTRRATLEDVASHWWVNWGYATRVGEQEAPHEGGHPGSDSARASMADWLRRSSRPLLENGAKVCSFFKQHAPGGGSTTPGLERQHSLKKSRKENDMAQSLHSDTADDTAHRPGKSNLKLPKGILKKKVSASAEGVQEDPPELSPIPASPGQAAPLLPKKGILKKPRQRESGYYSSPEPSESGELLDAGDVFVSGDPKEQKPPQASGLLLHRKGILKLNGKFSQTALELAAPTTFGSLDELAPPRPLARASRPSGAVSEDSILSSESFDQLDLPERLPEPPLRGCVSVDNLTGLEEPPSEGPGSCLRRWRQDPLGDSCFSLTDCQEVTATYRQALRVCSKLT"}, "NEK6": {"biological_target": "NEK6 (Homo sapiens, UniProt Q9HC98)", "sequence (Q9HC98 whole entry)": "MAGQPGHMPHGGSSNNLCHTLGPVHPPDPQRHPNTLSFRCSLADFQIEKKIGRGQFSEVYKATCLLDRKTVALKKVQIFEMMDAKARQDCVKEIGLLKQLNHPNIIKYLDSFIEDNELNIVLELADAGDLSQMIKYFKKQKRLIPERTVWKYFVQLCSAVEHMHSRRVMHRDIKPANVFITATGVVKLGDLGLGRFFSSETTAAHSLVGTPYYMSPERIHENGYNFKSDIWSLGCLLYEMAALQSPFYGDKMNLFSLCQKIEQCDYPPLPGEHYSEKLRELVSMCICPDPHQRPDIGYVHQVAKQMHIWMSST"}, "PIK3CA(H1047Y)": {"biological_target": "PIK3CA(H1047Y (Homo sapiens, UniProt P42336, H1047Y))"}, "TAOK2": {"biological_target": "TAOK2 (Homo sapiens, UniProt Q9UL54)", "sequence (Q9UL54 whole entry)": "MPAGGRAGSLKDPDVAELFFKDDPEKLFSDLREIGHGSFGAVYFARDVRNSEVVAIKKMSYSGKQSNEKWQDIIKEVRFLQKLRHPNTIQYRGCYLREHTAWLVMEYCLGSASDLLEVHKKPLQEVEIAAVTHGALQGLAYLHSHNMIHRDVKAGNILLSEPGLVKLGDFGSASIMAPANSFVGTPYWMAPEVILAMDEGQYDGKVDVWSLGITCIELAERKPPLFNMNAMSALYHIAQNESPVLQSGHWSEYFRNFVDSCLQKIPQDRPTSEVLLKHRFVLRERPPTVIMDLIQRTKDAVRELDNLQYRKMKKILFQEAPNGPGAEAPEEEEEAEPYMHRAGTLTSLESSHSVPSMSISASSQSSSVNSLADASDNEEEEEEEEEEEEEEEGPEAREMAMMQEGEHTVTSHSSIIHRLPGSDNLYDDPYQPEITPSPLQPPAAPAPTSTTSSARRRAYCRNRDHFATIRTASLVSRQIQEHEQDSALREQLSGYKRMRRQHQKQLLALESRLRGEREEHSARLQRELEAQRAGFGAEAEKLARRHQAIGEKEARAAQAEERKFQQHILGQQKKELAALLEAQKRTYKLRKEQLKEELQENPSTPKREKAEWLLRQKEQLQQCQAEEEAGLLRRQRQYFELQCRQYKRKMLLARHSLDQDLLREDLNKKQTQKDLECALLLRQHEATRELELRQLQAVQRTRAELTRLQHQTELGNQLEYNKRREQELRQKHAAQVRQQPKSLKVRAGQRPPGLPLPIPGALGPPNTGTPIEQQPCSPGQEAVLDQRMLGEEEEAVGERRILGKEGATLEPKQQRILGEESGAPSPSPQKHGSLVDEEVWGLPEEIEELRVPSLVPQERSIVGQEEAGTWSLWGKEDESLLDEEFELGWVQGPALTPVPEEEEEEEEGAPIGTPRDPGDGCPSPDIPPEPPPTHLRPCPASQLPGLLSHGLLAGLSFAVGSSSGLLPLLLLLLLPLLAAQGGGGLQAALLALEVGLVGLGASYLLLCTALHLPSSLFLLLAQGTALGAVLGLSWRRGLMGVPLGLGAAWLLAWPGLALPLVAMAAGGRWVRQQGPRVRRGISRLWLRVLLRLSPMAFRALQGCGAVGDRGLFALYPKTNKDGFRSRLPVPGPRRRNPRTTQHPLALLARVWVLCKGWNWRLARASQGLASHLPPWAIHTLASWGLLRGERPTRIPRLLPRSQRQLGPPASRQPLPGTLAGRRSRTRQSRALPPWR"}, "TAOK1": {"biological_target": "TAOK1 (Homo sapiens, UniProt Q7L7X3)"}, "OSR1": {"biological_target": "OSR1 (Homo sapiens, UniProt O95747)"}, "RIPK2": {"biological_target": "RIPK2 (Homo sapiens, UniProt O43353)"}, "p38-gamma": {"biological_target": "p38-gamma (Homo sapiens, UniProt P53778)"}, "PIK3CA": {"biological_target": "PIK3CA (Homo sapiens, UniProt P42336)"}, "PAK2": {"biological_target": "PAK2 (Homo sapiens, UniProt Q13177)"}, "[1]": {"conditions": "read-out: HYJ-2-002-1 (1μM) % control"}, "[2]": {"conditions": "read-out: CPT-1-70-1 (1μM) % control"}}, "note": "Like-named read-outs stand apart in the source and are kept apart here."}
{"smiles": "CCN1CCN(Cc2ccc(NC(=O)c3ccc(C)c(CCc4cnc5[nH]ccc5c4OC)c3)cc2C(F)(F)F)CC1", "note": "[HYJ-2-002-1]", "values": [{"measurement": "remaining activity at 1 µM", "setting": "VEGFR2; [1]", "value": 6.4, "unit": "%"}, {"measurement": "remaining activity at 1 µM", "setting": "PAK1; [1]", "value": 100, "unit": "%"}, {"measurement": "remaining activity at 1 µM", "setting": "TXK; [1]", "value": 2.1, "unit": "%"}, {"measurement": "remaining activity at 1 µM", "setting": "STK39; [1]", "value": 94, "unit": "%"}, {"measurement": "remaining activity at 1 µM", "setting": "NEK3; [1]", "value": 100, "unit": "%"}, {"measurement": "remaining activity at 1 µM", "setting": "NEK2; [1]", "value": 95, "unit": "%"}, {"measurement": "remaining activity at 1 µM", "setting": "NEK11; [1]", "value": 37, "unit": "%"}, {"measurement": "remaining activity at 1 µM", "setting": "TAOK3; [1]", "value": 0.45, "unit": "%"}, {"measurement": "remaining activity at 1 µM", "setting": "PRKR; [1]", "value": 75, "unit": "%"}, {"measurement": "remaining activity at 1 µM", "setting": "PFTAIRE2; [1]", "value": 94, "unit": "%"}, {"measurement": "remaining activity at 1 µM", "setting": "PCTK1; [1]", "value": 100, "unit": "%"}, {"measurement": "remaining activity at 1 µM", "setting": "p38-beta; [1]", "value": 0.35, "unit": "%"}, {"measurement": "remaining activity at 1 µM", "setting": "PAK6; [1]", "value": 100, "unit": "%"}, {"measurement": "remaining activity at 1 µM", "setting": "STK35; [1]", "value": 91, "unit": "%"}, {"measurement": "remaining activity at 1 µM", "setting": "AAK1; [1]", "value": 100, "unit": "%"}, {"measurement": "remaining activity at 1 µM", "setting": "TNNI3K; [1]", "value": 6.6, "unit": "%"}, {"measurement": "remaining activity at 1 µM", "setting": "TRPM6; [1]", "value": 100, "unit": "%"}, {"measurement": "remaining activity at 1 µM", "setting": "SBK1; [1]", "value": 93, "unit": "%"}, {"measurement": "remaining activity at 1 µM", "setting": "YSK1; [1]", "value": 87, "unit": "%"}, {"measurement": "remaining activity at 1 µM", "setting": "RET(V804M); [1]", "value": 1, "unit": "%"}, {"measurement": "remaining activity at 1 µM", "setting": "SNARK; [1]", "value": 100, "unit": "%"}, {"measurement": "remaining activity at 1 µM", "setting": "NEK6; [1]", "value": 100, "unit": "%"}, {"measurement": "remaining activity at 1 µM", "setting": "PIK3CA(H1047Y); [1]", "value": 100, "unit": "%"}, {"measurement": "remaining activity at 1 µM", "setting": "TAOK2; [1]", "value": 18, "unit": "%"}, {"measurement": "remaining activity at 1 µM", "setting": "TAOK1; [1]", "value": 34, "unit": "%"}, {"measurement": "remaining activity at 1 µM", "setting": "OSR1; [1]", "value": 93, "unit": "%"}, {"measurement": "remaining activity at 1 µM", "setting": "RIPK2; [1]", "value": 5.3, "unit": "%"}, {"measurement": "remaining activity at 1 µM", "setting": "p38-gamma; [1]", "value": 54, "unit": "%"}, {"measurement": "remaining activity at 1 µM", "setting": "PIK3CA; [1]", "value": 100, "unit": "%"}, {"measurement": "remaining activity at 1 µM", "setting": "PAK2; [1]", "value": 99, "unit": "%"}]}
{"smiles": "CN1CCN(c2ccc(Nc3nc(Oc4ccc(NC(=O)CCl)cc4)c4cc[nH]c4n3)cc2)CC1", "note": "[CPT1-70-1]", "values": [{"measurement": "remaining activity at 1 µM", "setting": "VEGFR2; [2]", "value": 40, "unit": "%"}, {"measurement": "remaining activity at 1 µM", "setting": "PAK1; [2]", "value": 64, "unit": "%"}, {"measurement": "remaining activity at 1 µM", "setting": "TXK; [2]", "value": 4.6, "unit": "%"}, {"measurement": "remaining activity at 1 µM", "setting": "STK39; [2]", "value": 85, "unit": "%"}, {"measurement": "remaining activity at 1 µM", "setting": "NEK3; [2]", "value": 68, "unit": "%"}, {"measurement": "remaining activity at 1 µM", "setting": "NEK2; [2]", "value": 100, "unit": "%"}, {"measurement": "remaining activity at 1 µM", "setting": "NEK11; [2]", "value": 95, "unit": "%"}, {"measurement": "remaining activity at 1 µM", "setting": "TAOK3; [2]", "value": 71, "unit": "%"}, {"measurement": "remaining activity at 1 µM", "setting": "PRKR; [2]", "value": 93, "unit": "%"}, {"measurement": "remaining activity at 1 µM", "setting": "PFTAIRE2; [2]", "value": 100, "unit": "%"}, {"measurement": "remaining activity at 1 µM", "setting": "PCTK1; [2]", "value": 100, "unit": "%"}, {"measurement": "remaining activity at 1 µM", "setting": "p38-beta; [2]", "value": 100, "unit": "%"}, {"measurement": "remaining activity at 1 µM", "setting": "PAK6; [2]", "value": 74, "unit": "%"}, {"measurement": "remaining activity at 1 µM", "setting": "STK35; [2]", "value": 100, "unit": "%"}, {"measurement": "remaining activity at 1 µM", "setting": "AAK1; [2]", "value": 18, "unit": "%"}, {"measurement": "remaining activity at 1 µM", "setting": "TNNI3K; [2]", "value": 100, "unit": "%"}, {"measurement": "remaining activity at 1 µM", "setting": "TRPM6; [2]", "value": 48, "unit": "%"}, {"measurement": "remaining activity at 1 µM", "setting": "SBK1; [2]", "value": 10, "unit": "%"}, {"measurement": "remaining activity at 1 µM", "setting": "YSK1; [2]", "value": 89, "unit": "%"}, {"measurement": "remaining activity at 1 µM", "setting": "RET(V804M); [2]", "value": 2.2, "unit": "%"}, {"measurement": "remaining activity at 1 µM", "setting": "SNARK; [2]", "value": 8.5, "unit": "%"}, {"measurement": "remaining activity at 1 µM", "setting": "NEK6; [2]", "value": 100, "unit": "%"}, {"measurement": "remaining activity at 1 µM", "setting": "PIK3CA(H1047Y); [2]", "value": 100, "unit": "%"}, {"measurement": "remaining activity at 1 µM", "setting": "TAOK2; [2]", "value": 65, "unit": "%"}, {"measurement": "remaining activity at 1 µM", "setting": "TAOK1; [2]", "value": 96, "unit": "%"}, {"measurement": "remaining activity at 1 µM", "setting": "OSR1; [2]", "value": 96, "unit": "%"}, {"measurement": "remaining activity at 1 µM", "setting": "RIPK2; [2]", "value": 100, "unit": "%"}, {"measurement": "remaining activity at 1 µM", "setting": "p38-gamma; [2]", "value": 100, "unit": "%"}, {"measurement": "remaining activity at 1 µM", "setting": "PIK3CA; [2]", "value": 100, "unit": "%"}, {"measurement": "remaining activity at 1 µM", "setting": "PAK2; [2]", "value": 64, "unit": "%"}]}
